The results in this text go back to PubChem BioAssay (NCI).

Several values for one entry are separate records, joined by “and”; a condition that tells them apart may be missing. Identical values can stand only once.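 A five-concentration, 48-hour dose response in 96-well plates underlies each endpoint, interpolated linearly between surrounding concentrations. GI50 marks 50% less growth. TGI is the concentration that stops growth completely.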

Among the test systems are A549 NSCLC; HL-60(TB) leukemia; HT29 colon; MDA-MB-231 breast; MDA-MB-435; NCI-H23 lung; OVCAR-8 ovarian; PC-3 prostate; T-47D breast; SR leukemia.
Common to all, as to assay: inhibition of tumour cell growth, NCI panel, 48 h

On to `COc1ccc(-c2ccc(/C=N/n3c(COc4ccccc4Cl)nn(CN4CCN(C)CC4)c3=S)o2)c([N+](=O)[O-])c1`, for which the GI50 in the test on A549 NSCLC is 14100 nM; in the test on HL-60(TB) leukemia, 32800 nM; in the test with HT29 colon, 23500 nM; with MDA-MB-231 breast, 14600 nM; in the test on MDA-MB-435, 18300 nM; with NCI-H23 lung, 16300 nM. Further, the GI50 in the test on OVCAR-8 ovarian was 17.3 µM; in the test with PC-3 prostate, 15300 nM; in the test with T-47D breast it was 22100 nM. For the same compound, the TGI in the test on A549 NSCLC worked out at 36.7 µM; in the test with HL-60(TB) leukemia it was 65.7 µM; in the test with HT29 colon it was 55.9 µM; in the test on MDA-MB-231 breast, 37.5 µM; in the test with MDA-MB-435, 40.9 µM; with NCI-H23 lung, 31 µM. Also, the results for the TGI in the test with OVCAR-8 ovarian, with PC-3 prostate and in the test with T-47D breast were 42.2 µM, 58.2 µM and 77.1 µM, respectively.

On to `CC(C)C1OC(=O)C=C1Sc1ccccc1` (stereo unspecified), for which the TGI in the test with A549 NSCLC, in the test on HL-60(TB) leukemia, with HT29 colon, in the test on MDA-MB-231 breast, in the test on MDA-MB-435 and in the test on OVCAR-8 ovarian was greater than 100 µM throughout. Moreover, the TGI in the test on PC-3 prostate, with SR leukemia and with T-47D breast was greater than 100 µM in each case.

With `CCn1c2c(n(CC)c1=S)-c1c(n(CC)c(=S)n1CC)SSSS2`, the TGI with A549 NSCLC was determined as 68.4 µM; in the test with HL-60(TB) leukemia, 8.76 µM; with HT29 colon, 29.2 µM; in the test with MDA-MB-231 breast, 10 µM; with MDA-MB-435, 27.5 µM; in the test on NCI-H23 lung, 22.3 µM. In addition, the figures for the TGI in the test on OVCAR-8 ovarian, with SR leukemia and in the test with T-47D breast were 23.3 µM, 9.17 µM and 5.16 µM, respectively.

On to `Cc1ccc(C2NC(=S)NC3=C2CCOc2c3ccc3ccccc23)cc1` (stereo unspecified), for which the GI50 with A549 NSCLC was greater than 100000 nM; with HL-60(TB) leukemia it was 5860 nM; in the test on HT29 colon, 8000 nM; with MDA-MB-231 breast, 26300 nM; in the test with MDA-MB-435 it was 2780 nM; in the test on NCI-H23 lung, greater than 100000 nM. In addition, the GI50 in the test with OVCAR-8 ovarian is greater than 100 µM; in the test on PC-3 prostate, 22200 nM; with T-47D breast, 35700 nM. Moreover, the TGI with A549 NSCLC, in the test with HL-60(TB) leukemia, in the test on HT29 colon, in the test on MDA-MB-231 breast, with MDA-MB-435 and in the test with NCI-H23 lung was greater than 100 µM throughout. The TGI in the test on OVCAR-8 ovarian, in the test with PC-3 prostate and in the test with T-47D breast was greater than 100 µM in each case.

For `COC(=O)c1ccc2c(c1)nc(-c1cc3ccccc3[nH]c1=O)n2-c1cc(C(C)(C)C)[nH]n1`, the GI50 with A549 NSCLC was greater than 100000 nM; with HL-60(TB) leukemia, 2170 nM; in the test on HT29 colon, 1340 nM; in the test on MDA-MB-231 breast it was 4130 nM; in the test with NCI-H23 lung, 2640 nM; with OVCAR-8 ovarian, 2 µM. The GI50 was 2270 nM with PC-3 prostate, 12.8 µM with SR leukemia and greater than 100000 nM in the test on T-47D breast. The TGI in the test on A549 NSCLC, with HL-60(TB) leukemia, with HT29 colon, in the test with MDA-MB-231 breast, with NCI-H23 lung and with OVCAR-8 ovarian was greater than 100 µM each time. Besides, the TGI in the test on PC-3 prostate, with SR leukemia and in the test with T-47D breast was greater than 100 µM each time.

In the case of `CN(C)c1ccc(C(=C2C=CC(=[N+](C)C)C=C2)c2ccc(N(C)C)cc2)cc1` (tested in a mixture with another compound), the GI50 in the test with A549 NSCLC was 32.6 nM; in the test on HL-60(TB) leukemia it was 125 nM; in the test on HT29 colon, 41.1 nM; in the test with MDA-MB-231 breast it was 205 nM; in the test with MDA-MB-435, 62.6 nM; in the test on PC-3 prostate, 36.8 nM. For the same compound, the results for the GI50 in the test on SR leukemia and in the test on T-47D breast were 0.0313 µM and 38.9 nM, respectively. The TGI is 0.688 µM in the test with A549 NSCLC; 0.677 µM in the test with HL-60(TB) leukemia; greater than 100 µM in the test with HT29 colon; 1.03 µM in the test with MDA-MB-231 breast; 0.676 µM in the test with MDA-MB-435; 1.6 µM with PC-3 prostate. The TGI in the test with SR leukemia is 0.106 µM; with T-47D breast it was 0.655 µM.

Regarding `COc1cc2c(cc1OCCOS(C)(=O)=O)N=C[C@@H]1CCCN1C2=O`, the TGI was greater than 100 µM with A549 NSCLC; 55.9 µM in the test on HL-60(TB) leukemia; greater than 100 µM in the test on HT29 colon; 39.3 µM in the test on MDA-MB-231 breast; 37.7 µM in the test on MDA-MB-435; 25.2 µM in the test on NCI-H23 lung. Also, the TGI was greater than 100 µM in the test on OVCAR-8 ovarian, 32.9 µM with SR leukemia and greater than 100 µM in the test on T-47D breast. In addition, the GI50 in the test on MDA-MB-231 breast was 16500 nM; with NCI-H23 lung, 12200 nM; in the test on SR leukemia, 11.1 µM.

On to `CC[C@H]1CN2CCc3cc(OC)c(OC)cc3[C@@H]2C[C@@H]1C[C@H]1NCCc2cc(O)c(OC)cc21`, for which the TGI was 0.0652 µM and 0.0527 µM and 0.355 µM with A549 NSCLC; 0.0408 µM and 0.031 µM in the test on HL-60(TB) leukemia; 0.0551 µM and 0.0171 µM and 0.047 µM in the test on HT29 colon; 0.0377 µM and 0.156 µM with MDA-MB-435; 0.0584 µM and 0.115 µM in the test on NCI-H23 lung; 0.0519 µM and < 0.0323 µM and 0.165 µM with OVCAR-8 ovarian. For the same compound, in the test with T-47D breast, the TGI amounted to 0.0776 µM. Also, the GI50 was 9.01 nM in the test on MDA-MB-231 breast, 18.3 nM with MDA-MB-435, 24.3 nM in the test on PC-3 prostate and 22 nM in the test on T-47D breast.

Consider `CC(=O)c1c(C(F)(F)F)n([O-])c2ccc(Cl)cc2[n+]1=O`, for which the GI50 in the test with A549 NSCLC is 2500 nM; in the test on HL-60(TB) leukemia, 681 nM; with HT29 colon, 1400 nM; with MDA-MB-231 breast, 1300 nM; in the test with MDA-MB-435 it was 2800 nM; in the test with NCI-H23 lung, 1720 nM. The GI50 was 3.66 µM with OVCAR-8 ovarian and 2310 nM in the test on T-47D breast. The TGI in the test on A549 NSCLC was 11.6 µM; in the test on HL-60(TB) leukemia, 4.65 µM; in the test on HT29 colon it was greater than 100 µM; in the test with MDA-MB-231 breast, 3.27 µM; in the test on MDA-MB-435, 9.94 µM; in the test on NCI-H23 lung, 6.64 µM. Also, the TGI in the test with OVCAR-8 ovarian was 20.4 µM; in the test with PC-3 prostate it was 2.79 µM; in the test with T-47D breast, greater than 40.4 µM.

For `CCN(CC)CCCNc1cccc2c(SCc3ccccc3)ccnc12`, the GI50 was 1730 nM in the test with A549 NSCLC; 907 nM in the test with HT29 colon; 1010 nM with MDA-MB-231 breast; 1840 nM with MDA-MB-435; 1900 nM in the test with NCI-H23 lung; 3.41 µM with OVCAR-8 ovarian. Further, the GI50 in the test on PC-3 prostate is 1860 nM; with SR leukemia, 1.79 µM; with T-47D breast it was 1930 nM. Besides, the TGI came to 3.33 µM with A549 NSCLC; 2.3 µM in the test with HT29 colon; 2.48 µM in the test on MDA-MB-231 breast; 3.65 µM with MDA-MB-435; 5.09 µM in the test on NCI-H23 lung; 11.5 µM in the test on OVCAR-8 ovarian. Also, the figures for the TGI with PC-3 prostate, with SR leukemia and in the test with T-47D breast were 4.88 µM, 4.47 µM and 4.29 µM, respectively.
